{"source": "patent US8895051B2", "about": "“Flavoring systems for pharmaceutical compositions and methods of making such compositions” (AbbVie Inc., priority 2000, dated 2014)", "key": {"[1]": {"assay": "solubility in pharmaceutically acceptable solvents and in a co-solvent system", "type": "physicochemical"}, "solubility in water": {"assay": "solubility in water", "type": "physicochemical", "details": "room temperature and pressure (approximately 25° C. and 1 atmosphere)"}}}
{"smiles": "Cc1cccc(C)c1OCC(=O)N[C@@H](Cc1ccccc1)[C@@H](O)C[C@H](Cc1ccccc1)NC(=O)[C@H](C(C)C)N1CCCNC1=O", "note": "(relative stereo) [lopinavir, [1S-[1R*,(R*),3R*,4R*]]-N-[4-[[(2,6-dimethylphenoxy)acetyl]amino]-3-hydroxy-5-phenyl-1-(phenylmethyl)pentyl]tetrahydro-alpha-(1-methylethyl)-2-oxo-(2H)-pyrimidine acetamide]", "values": [{"measurement": "solubility in pharmaceutically acceptable solvents, such as propylene glycol and ethanol", "setting": "[1]; individual solvents, room temperature (about 25° C.)", "value": "adequately soluble"}, {"measurement": "solubility in a co-solvent system", "setting": "[1]; more than one solvent in the solvent system, versus individual solvents", "value": "significantly improved"}, {"measurement": "solubility in water", "setting": "solubility in water", "value": "practically insoluble"}]}
